Laboratory results taken from US10040781B2, “Tank-binding kinase inhibitor compounds” (Gilead Sciences, Inc., priority 2014, dated 2018).
Like-named read-outs stand apart in the source and are kept apart here.

Tests used:
IKKε = IKKε (Homo sapiens (Human), UniProt Q14164); experiment: IKKε TR-FRET enzymatic assay; type: biochemical; details: read-out: IKKe IC50
TBK1 = TBK1 (Homo sapiens (Human), UniProt Q9UHD2); experiment: TBK1 TR-FRET enzymatic assay;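 further: phosphorylation of a biotinylated Ser/Thr peptide by purified full-length recombinant TBK1, read by TR-FRET after 240 min at 25 °C, IC50 is the geometric mean of at least four runs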
[1] = TR-FRET, 2×Km ATP, geometric mean of minimum four determinations

TBK1, sequence (Q9UHD2 whole entry): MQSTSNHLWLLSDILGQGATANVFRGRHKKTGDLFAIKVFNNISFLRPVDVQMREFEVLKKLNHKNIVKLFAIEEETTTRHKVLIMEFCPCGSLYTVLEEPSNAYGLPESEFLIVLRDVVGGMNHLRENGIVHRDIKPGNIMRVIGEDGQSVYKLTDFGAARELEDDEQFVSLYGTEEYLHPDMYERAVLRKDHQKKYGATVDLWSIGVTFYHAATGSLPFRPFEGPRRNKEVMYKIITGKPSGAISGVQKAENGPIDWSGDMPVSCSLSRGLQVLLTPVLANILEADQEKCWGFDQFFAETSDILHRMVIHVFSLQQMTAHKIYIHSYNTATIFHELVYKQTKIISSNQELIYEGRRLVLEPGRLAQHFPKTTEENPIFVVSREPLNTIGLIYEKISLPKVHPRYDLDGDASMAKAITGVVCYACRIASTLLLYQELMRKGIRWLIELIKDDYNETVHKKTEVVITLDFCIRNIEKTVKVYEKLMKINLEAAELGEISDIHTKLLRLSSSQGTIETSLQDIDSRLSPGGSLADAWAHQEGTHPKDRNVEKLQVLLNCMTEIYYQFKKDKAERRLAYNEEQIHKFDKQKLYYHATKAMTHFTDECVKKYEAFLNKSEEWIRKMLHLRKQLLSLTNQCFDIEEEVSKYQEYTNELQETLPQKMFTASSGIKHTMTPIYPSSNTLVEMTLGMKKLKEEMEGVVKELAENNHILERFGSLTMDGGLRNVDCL
IKKε, sequence (Q14164 whole entry): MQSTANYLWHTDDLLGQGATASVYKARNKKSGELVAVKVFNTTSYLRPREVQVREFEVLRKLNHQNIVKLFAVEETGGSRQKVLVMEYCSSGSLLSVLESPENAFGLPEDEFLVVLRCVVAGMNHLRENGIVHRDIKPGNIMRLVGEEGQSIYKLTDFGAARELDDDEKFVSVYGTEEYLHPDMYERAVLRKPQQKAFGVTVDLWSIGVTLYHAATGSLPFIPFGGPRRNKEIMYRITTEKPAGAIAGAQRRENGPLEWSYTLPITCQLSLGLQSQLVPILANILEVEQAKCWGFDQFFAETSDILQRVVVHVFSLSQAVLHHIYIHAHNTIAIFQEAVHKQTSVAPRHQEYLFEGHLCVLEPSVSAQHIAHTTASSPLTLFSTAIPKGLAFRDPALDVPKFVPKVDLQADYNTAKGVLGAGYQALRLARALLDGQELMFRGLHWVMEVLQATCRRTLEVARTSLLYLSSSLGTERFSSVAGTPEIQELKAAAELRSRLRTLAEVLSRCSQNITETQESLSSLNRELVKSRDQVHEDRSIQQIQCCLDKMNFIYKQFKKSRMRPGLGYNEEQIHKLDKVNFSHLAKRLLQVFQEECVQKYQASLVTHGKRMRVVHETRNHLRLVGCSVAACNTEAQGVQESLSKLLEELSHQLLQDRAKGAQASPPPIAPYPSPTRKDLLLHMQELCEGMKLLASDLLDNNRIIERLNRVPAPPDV

Row | Compound | IC50 (IKKε) [nM] | IC50 (TBK1) [nM] | IC50 (IKKε; [1]) [nM]
1 | COc1cc(Nc2ncnc(-c3ccc(OC4CCOCC4)c(C#N)c3)n2)cc(F)c1N1CCN(C2COC2)CC1 [Example 61, 5-(4-((3-fluoro-5-methoxy-4-(4-(oxetan-3-yl)piperazin-1-yl)phenyl)amino)-1,3,5-triazin-2-yl)-2-((tetrahydro-2H-pyran-4-yl)oxy)benzonitrile] | 7 | 2 | –
2 | N#Cc1cc(-c2ncnc(Nc3ccc(N4CCN(C(=O)CO)CC4)cc3)n2)ccc1OC1CCOCC1 [Example 64, 5-(4-((4-(4-(2-hydroxyacetyl)piperazin-1-yl)phenyl)amino)-1,3,5-triazin-2-yl)-2-((tetrahydro-2H-pyran-4-yl)oxy)benzonitrile] | 5 | 1 | –
3 | N#CCC(=O)N1CC[C@H](Oc2ccc(-c3ncnc(Nc4ccc(N5CCN(C6COC6)CC5)cc4)n3)cc2C#N)C(F)(F)C1 [Example 160, (S)-2-((1-(2-cyanoacetyl)-3,3-difluoropiperidin-4-yl)oxy)-5-(4-((4-(4-(oxetan-3-yl)piperazin-1-yl)phenyl)amino)-1,3,5-triazin-2-yl)benzonitrile] | 2 | 3 | –
4 | N#Cc1cc(-c2ncnc(Nc3ccc(N4CCN(C5COC5)CC4)cc3)n2)ccc1O[C@H]1CCN(C(=O)c2cnn[nH]2)CC1(F)F [Example 165, (S)-2-((3,3-difluoro-1-(1H-1,2,3-triazole-5-carbonyl)piperidin-4-yl)oxy)-5-(4-((4-(4-(oxetan-3-yl)piperazin-1-yl)phenyl)amino)-1,3,5-triazin-2-yl)benzonitrile] | 1 | 2 | –
5 | N#Cc1cc(-c2ncnc(Nc3ccc(N4CCN(C5COC5)CC4)cc3)n2)ccc1OC1CCN(C(=O)c2ncc[nH]2)CC1 [Example 189, 2-((1-(1H-imidazole-2-carbonyl)piperidin-4-yl)oxy)-5-(4-((4-(4-(oxetan-3-yl)piperazin-1-yl)phenyl)amino)-1,3,5-triazin-2-yl)benzonitrile] | 19 | 5 | –
6 | CN1CC2(CCN(c3ccc(-c4ncnc(Nc5ccc(N6CCN(C7COC7)CC6)cc5)n4)cc3C#N)CC2)C1 [Example 209, 2-(2-methyl-2,7-diazaspiro[3.5]nonan-7-yl)-5-(4-((4-(4-(oxetan-3-yl)piperazin-1-yl)phenyl)amino)-1,3,5-triazin-2-yl)benzonitrile] | 213 | 49 | –
7 | N#Cc1cc(-c2ncnc(Nc3ccc(N4CCN(C5COC5)CC4)cc3)n2)ccc1O[C@H]1CCOC1 [Example 216, (S)-5-(4-((4-(4-(oxetan-3-yl)piperazin-1-yl)phenyl)amino)-1,3,5-triazin-2-yl)-2-((tetrahydrofuran-3-yl)oxy)benzonitrile] | 42 | 13 | –
8 | C[C@H]1CN(C2COC2)CCN1c1ccc(Nc2ncnc(-c3ccc(O[C@H]4CCN(C(=O)c5cnn[nH]5)CC4(F)F)c(C#N)c3)n2)cc1 [Example 258, 2-(((S)-3,3-difluoro-1-(1H-1,2,3-triazole-5-carbonyl)piperidin-4-yl)oxy)-5-(4-((4-((S)-2-methyl-4-(oxetan-3-yl)piperazin-1-yl)phenyl)amino)-1,3,5-triazin-2-yl)benzonitrile] | 1 | 3 | –
9 | CS(=O)(=O)OC1CN(c2ccc(-c3ncnc(Nc4ccc(N5CCN(C6COC6)CC5)cc4)n3)cc2C#N)C1 [Example 276, 1-(2-cyano-4-(4-((4-(4-(oxetan-3-yl)piperazin-1-yl)phenyl)amino)-1,3,5-triazin-2-yl)phenyl)azetidin-3-yl methanesulfonate] | 38 | 23 | –
10 | Cc1nnsc1COc1ccc(-c2ncnc(Nc3ccc(N4CCN(C5COC5)CC4)cc3)n2)cc1C#N [Example 284, 2-((4-methyl-1,2,3-thiadiazol-5-yl)methoxy)-5-(4-((4-(4-(oxetan-3-yl)piperazin-1-yl)phenyl)amino)-1,3,5-triazin-2-yl)benzonitrile] | ≥ 1000 | 475 | –
11 | COC(=O)N1CC[C@H](Oc2ccc(-c3ncnc(Nc4ccc(N5CCN(C6COC6)CC5)cc4)n3)cc2C#N)[C@H](F)C1 [Example 290, (3R,4S)-methyl 4-(2-cyano-4-(4-((4-(4-(oxetan-3-yl)piperazin-1-yl)phenyl)amino)-1,3,5-triazin-2-yl)phenoxy)-3-fluoropiperidine-1-carboxylate] | 32 | 13 | –
12 | N#Cc1cc(-c2ncnc(Nc3ccc(N4CCNCC4)c(F)c3)n2)ccc1O[C@H]1CCOC[C@H]1F [Example 298, 5-(4-((3-fluoro-4-(piperazin-1-yl)phenyl)amino)-1,3,5-triazin-2-yl)-2-(((3R,4S)-3-fluorotetrahydro-2H-pyran-4-yl)oxy)benzonitrile] | 1 | 4 | –
13 | N#Cc1cc(-c2ncnc(Nc3ccc(N4CCN(C5COC5)CC4)cc3)n2)ccc1O[C@H]1CCN(C(=O)c2cnc(N)cn2)C[C@H]1F [Example 341, 2-(((3R,4S)-1-(5-aminopyrazine-2-carbonyl)-3-fluoropiperidin-4-yl)oxy)-5-(4-((4-(4-(oxetan-3-yl)piperazin-1-yl)phenyl)amino)-1,3,5-triazin-2-yl)benzonitrile] | 1 | 2 | –
14 | Cc1nc(C)c(C(=O)N2CC[C@H](Oc3ccc(-c4ncnc(Nc5ccc(N6CCN(C7COC7)CC6)cc5)n4)cc3C#N)[C@H](F)C2)[nH]1 [Example 345, 2-(((3R,4S)-1-(2,4-dimethyl-1H-imidazole-5-carbonyl)-3-fluoropiperidin-4-yl)oxy)-5-(4-((4-(4-(oxetan-3-yl)piperazin-1-yl)phenyl)amino)-1,3,5-triazin-2-yl)benzonitrile] | 12 | 10 | –
15 | C[C@H](O)C(=O)N1CC[C@H](Oc2ccc(-c3ncnc(Nc4ccc(N5CCC(C)(O)CC5)cc4)n3)cc2C#N)[C@H](F)C1 [Example 355, 2-(((3R,4S)-3-fluoro-1-((S)-2-hydroxypropanoyl)piperidin-4-yl)oxy)-5-(4-((4-(4-hydroxy-4-methylpiperidin-1-yl)phenyl)amino)-1,3,5-triazin-2-yl)benzonitrile] | 2 | 4 | –
16 | N#Cc1cc(-c2ncnc(Nc3ccc(N4CCN(C5COC5)CC4)cc3)n2)ccc1O[C@H]1CCN(C(=O)Cn2cnnc2)C[C@H]1F [Example 377, 2-(((3R,4S)-1-(2-(4H-1,2,4-triazol-4-yl)acetyl)-3-fluoropiperidin-4-yl)oxy)-5-(4-((4-(4-(oxetan-3-yl)piperazin-1-yl)phenyl)amino)-1,3,5-triazin-2-yl)benzonitrile] | 129 | 37 | –
17 | C[C@H](O)C(=O)N1CC[C@H](Oc2ccc(-c3ncnc(Nc4ccc(N5CCOC[C@@H]5CO)cc4)n3)cc2C#N)[C@H](F)C1 [Example 387, 2-(((3R,4S)-3-fluoro-1-((S)-2-hydroxypropanoyl)piperidin-4-yl)oxy)-5-(4-((4-((S)-3-(hydroxymethyl)morpholino)phenyl)amino)-1,3,5-triazin-2-yl)benzonitrile] | 2 | 3 | –
18 | N#Cc1cc(-c2ncnc(Nc3ccc(N4CCN(C5COC5)CC4)c(F)c3)n2)ccc1O[C@H]1CCN(C(=O)[C@@H](O)CO)C[C@H]1F [Example 409, 2-(((3R,4S)-1-((S)-2,3-dihydroxypropanoyl)-3-fluoropiperidin-4-yl)oxy)-5-(4-((3-fluoro-4-(4-(oxetan-3-yl)piperazin-1-yl)phenyl)amino)-1,3,5-triazin-2-yl)benzonitrile] | – | 2 | 1
19 | C[C@H]1C[C@H](Oc2ccc(-c3ncnc(Nc4ccc(N5CCN(C6COC6)CC5)cc4)n3)cc2C#N)[C@H](F)CN1C(=O)[C@H]1CCC(=O)N1 [Example 411, 2-(((2S,4S,5R)-5-fluoro-2-methyl-1-((R)-5-oxopyrrolidine-2-carbonyl)piperidin-4-yl)oxy)-5-(4-((4-(4-(oxetan-3-yl)piperazin-1-yl)phenyl)amino)-1,3,5-triazin-2-yl)benzonitrile] | – | 533 | ≥ 1000
20 | C[C@H]1C[C@H](Oc2ccc(-c3ncnc(Nc4ccc(N5CCN(C6COC6)CC5)cc4)n3)cc2C#N)[C@H](F)CN1C(=O)[C@@H]1CCC(=O)N1 [Example 416, 2-(((2S,4S,5R)-5-fluoro-2-methyl-1-((S)-5-oxopyrrolidine-2-carbonyl)piperidin-4-yl)oxy)-5-(4-((4-(4-(oxetan-3-yl)piperazin-1-yl)phenyl)amino)-1,3,5-triazin-2-yl)benzonitrile] | – | 64 | 124
21 | N#Cc1cc(-c2ncnc(Nc3ccc(N4CCN(C5COC5)CC4)cc3)n2)ccc1O[C@H]1CCN(C(=O)c2nc(=O)[nH][nH]2)C[C@H]1F [Example 437, 2-(((3R,4S)-3-fluoro-1-(5-oxo-2,5-dihydro-1H-1,2,4-triazole-3-carbonyl)piperidin-4-yl)oxy)-5-(4-((4-(4-(oxetan-3-yl)piperazin-1-yl)phenyl)amino)-1,3,5-triazin-2-yl)benzonitrile] | – | 4 | 2
22 | N#Cc1cc(-c2ncnc(Nc3cnn(C(F)F)c3)n2)ccc1O[C@H]1CCN(C(=O)[C@@H](O)CO)C[C@H]1F [Example 456] | – | 4 | 7
23 | C[C@H](O)C(=O)N1CC[C@H](Oc2ccc(-c3ncnc(Nc4cnn(C(F)F)c4)n3)cc2C#N)[C@H](F)C1 [Example 457, 5-(4-((1-(difluoromethyl)-1H-pyrazol-4-yl)amino)-1,3,5-triazin-2-yl)-2-(((3R,4S)-3-fluoro-1-((S)-2-hydroxypropanoyl)piperidin-4-yl)oxy)benzonitrile] | – | 13 | 20
24 | N#Cc1cc(-c2ncnc(Nc3ccc(N4CCN5CCOC[C@H]5C4)cc3)n2)ccc1O[C@H]1CCN(C(=O)[C@@H]2CCC(=O)N2)C[C@H]1F [Example 466, 2-(((3R,4S)-3-fluoro-1-((S)-5-oxopyrrolidine-2-carbonyl)piperidin-4-yl)oxy)-5-(4-((4-((R)-hexahydropyrazino[2,1-c][1,4]oxazin-8(1H)-yl)phenyl)amino)-1,3,5-triazin-2-yl)benzonitrile] | – | 4 | 5
